Reference: US7365083B2, “Amide derivatives as NMDA receptor antagonists” (Richter Gedeon Vegyeszeti Gyar Rt., priority 2000, dated 2008)
Where two headings read alike, the source gives them in different places.

Legend:
Assay type in all cases: cell-based
NMDA receptors = target: T1, NMDA receptors (Rattus norvegicus, UniProt P35439+Q00960); experiment: NMDA antagonist potency in vitro by measurement of intracellular calcium concentration with a plate reader fluorimeter, primary neocortical cell cultures
T1 construct: primary neocortical cell cultures derived from 17 day old Charles River rat embryos; endogenous in cells; host or cells: primary neocortical neurons from 17 day old rat embryos, 4-7 days in vitro
Text: It is known that during postnatal development the subunit composition of neuronal NMDA receptors is changing. […] Since NMDA receptors are known to be permeable to calcium ions upon excitation, we characterized the NMDA receptor activation by measurement of rise in intracellular calcium concentration following the agonist (NMDA) application to the cells.
Assessment of NMDA Antagonist Potency In Vitro by Measurement of Intracellular Calcium Concentration with a Plate Reader Fluorimeter
The cultures were used for the intracellular calcium measurements after 4-7 days in vitro. […] To stop the loading the cells were washed twice with the solution used for the measurement (140 mM NaCl, 5 mM KCl, 2 mM CaCl2, 5 mM HEPES, 5 mM HEPES-Na, 20 mM glucose, 10 μM glycine, pH=7.4). After washing the test compounds were added to the cells in the above solution (90 μl/well). Intracellular calcium measurements were carried out with a plate reader fluorimeter: elevation of Fluo-4-fluorescence and so, intracellular calcium was induced by application of 40 μM NMDA. Inhibitory potency of the test compounds was assessed by measuring the reduction in the calcium elevation in the presence of different concentrations of the compounds. After the measurement a standard calibration procedure with slight modifications was used to convert the fluorescent data to calcium concentration values [Meth. Cell.
Dose-response curves and IC50-values were calculated by using data derived from at least three independent experiments. Inhibitory potency of a compound at a single concentration point was expressed as percent inhibition of the NMDA response. Sigmoidal concentration-inhibition curves were fit to the data and IC50 values were determined as the concentration that produces half of the maximal inhibition caused by the compound.

NR1a/NR2A receptors = target: T2, NR1a/NR2A receptors (Rattus norvegicus, UniProt Q00959); experiment: NMDA antagonist potency on HEK cells transiently transfected with NR1a/NR2A subunits, patch clamp method; conditions: HEK293, 15 μM test concentration, 100 μM NMDA, -70 mV, read-out: NR1/NR2A % Inhibition of NMDA Ca2+-response 15 μM
T2 construct: expressed in transfected cells; host or cells: HEK293, transient expression
Protocol: (§1) Genes cloned according to published sequences [gi508809 (rat NR1a), gi205738 (rat NR2B), gi2905805 (rat NR2A)] were inserted into inducible mammalian expression vectors bearing different resistance genes (hygromycine in case of NR1a or neomycine in case of NR2 subunits). The vector constructs were introduced into HEK293 cells using a cationic lipid-mediated transfection method. Protein expression was induced by 3 μM MuristeronA. Cells were maintained in the presence of 365 μM ketamine for 48-72 hours under an atmosphere of 95% air-5% CO2 at 37° C. before the experiments.
Assessment of NMDA Antagonist Potency on Cells Transfected with NR1a/NR2A Subunits—Patch Clamp Method
Cells transiently expressing NR1a/NR2A receptors and grown onto coverslips were used in patch clamp experiments. Whole-cell patch clamp recording was done according to the standard technique. Cell cultures were constantly superfused with an extracellular solution (140 mM NaCl, 5 mM KCl, 5 mM Hepes, 5 mM Na-Hepes, 2 mM CaCl2, 20 mM glucose, 10 μM glycine, pH 7.35) at room temperature. Patch pipettes with resistance between 3 and 6 MΩ were filled with an intracellular solution (140 mM CsCl, 11 mM EGTA, and 10 mM Hepes, pH 7.3). The inward current elicited by 100 μM NMDA was recorded from cells voltage clamped at −70 mV. Compounds were applied via a multibarrel ejection device controlled by electromagnetic valves. First NMDA was repeatedly administered until stabilization of responses, then it was given in the presence of the test compound. The degree of inhibition—expressed as percentage—was calculated from the peak currents evoked by NMDA in the presence and absence of the test compound. Selectivity ratio (NR2B/NR2A), was calculated as the ratio of test dose on NR1/2A transfected cells and IC50 value of NMDA antagonism on NR1/NR2B expressing cells.

NR1a/NR2B receptors = target: T3, NR1a/NR2B receptors (Rattus norvegicus, UniProt P35439+Q00960); experiment: NMDA antagonist potency on HEK293 cells stably expressing NR1a/NR2B subunits, fluorimetric method; conditions: for IC50: HEK293 cells stably expressing NR1a/NR2B, intracellular calcium, plate reader fluorimeter, means of 3 experiments, read-out: NR1/NR2B IC50
T3 construct: expressed in transfected cells
Protocol: as §1
Assessment of NMDA Antagonist Potency on Cells Transfected with NR1a/NR2B Subunits—Fluorimetric Method
For establishment of cell clones stably expressing NR1a/NR2B receptors, transfected cells were exposed to the selecting antibiotics for 4 weeks then resistant clones were grown up. The expression of NR2B subunit protein was verified by a flow cytometry based immunocytochemical method. Positive clones were further tested for functional activity in patch clamp experiments. […] Induction of protein expression and maintenance of cells were the same as described above.
The cells were plated onto standard 96-well microplates. A plate reader-based fluorometric assay was used to measure NMDA antagonism. The method was essentially similar to that described above for testing primary cultures of rat cortical neurons.

[1] = rat primary neocortical cultures, 4-7 days in vitro, calcium elevation induced by 40 μM NMDA, Fluo-4, read-out: NMDA IC50

T3 sequence (Q00960 27-1482, other chains not shown): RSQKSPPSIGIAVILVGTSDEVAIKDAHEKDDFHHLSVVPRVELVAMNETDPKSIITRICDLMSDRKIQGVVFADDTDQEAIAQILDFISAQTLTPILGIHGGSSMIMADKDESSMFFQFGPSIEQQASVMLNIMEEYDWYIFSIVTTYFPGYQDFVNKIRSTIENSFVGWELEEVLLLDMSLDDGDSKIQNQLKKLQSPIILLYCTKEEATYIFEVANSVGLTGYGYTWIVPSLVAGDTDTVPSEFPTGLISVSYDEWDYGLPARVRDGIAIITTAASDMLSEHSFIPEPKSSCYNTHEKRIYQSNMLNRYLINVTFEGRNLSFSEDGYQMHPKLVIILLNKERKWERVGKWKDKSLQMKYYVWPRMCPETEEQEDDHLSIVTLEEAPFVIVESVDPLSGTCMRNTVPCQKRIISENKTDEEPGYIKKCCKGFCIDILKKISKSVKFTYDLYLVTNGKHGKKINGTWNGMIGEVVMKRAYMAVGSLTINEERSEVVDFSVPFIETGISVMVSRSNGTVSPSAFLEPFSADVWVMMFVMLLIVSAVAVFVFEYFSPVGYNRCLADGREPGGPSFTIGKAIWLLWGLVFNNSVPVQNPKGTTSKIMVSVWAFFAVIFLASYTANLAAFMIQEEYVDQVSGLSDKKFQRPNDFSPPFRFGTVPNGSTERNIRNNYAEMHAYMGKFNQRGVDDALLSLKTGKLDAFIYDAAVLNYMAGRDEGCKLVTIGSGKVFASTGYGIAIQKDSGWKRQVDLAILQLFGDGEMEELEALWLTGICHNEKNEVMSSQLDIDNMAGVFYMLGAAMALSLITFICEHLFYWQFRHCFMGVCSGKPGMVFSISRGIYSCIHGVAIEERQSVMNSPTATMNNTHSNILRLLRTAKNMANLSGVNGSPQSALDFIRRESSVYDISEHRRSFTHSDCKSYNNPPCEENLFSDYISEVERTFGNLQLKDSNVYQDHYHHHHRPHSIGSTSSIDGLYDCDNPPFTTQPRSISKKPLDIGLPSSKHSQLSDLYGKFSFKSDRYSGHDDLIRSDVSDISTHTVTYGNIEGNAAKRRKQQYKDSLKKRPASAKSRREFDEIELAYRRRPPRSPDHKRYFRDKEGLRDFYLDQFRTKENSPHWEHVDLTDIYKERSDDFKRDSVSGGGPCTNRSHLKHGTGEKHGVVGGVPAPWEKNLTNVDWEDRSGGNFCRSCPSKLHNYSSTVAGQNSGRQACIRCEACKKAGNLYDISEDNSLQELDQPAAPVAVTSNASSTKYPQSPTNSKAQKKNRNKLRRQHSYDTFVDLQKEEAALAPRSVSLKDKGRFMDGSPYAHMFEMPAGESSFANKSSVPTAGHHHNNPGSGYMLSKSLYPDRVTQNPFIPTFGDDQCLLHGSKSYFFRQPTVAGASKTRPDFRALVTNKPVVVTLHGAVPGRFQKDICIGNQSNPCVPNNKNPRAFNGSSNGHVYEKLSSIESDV
T1 sequence (Q00960 27-1482, other chains not shown): as above
T2 sequence (Q00959 20-1464 limits assumed): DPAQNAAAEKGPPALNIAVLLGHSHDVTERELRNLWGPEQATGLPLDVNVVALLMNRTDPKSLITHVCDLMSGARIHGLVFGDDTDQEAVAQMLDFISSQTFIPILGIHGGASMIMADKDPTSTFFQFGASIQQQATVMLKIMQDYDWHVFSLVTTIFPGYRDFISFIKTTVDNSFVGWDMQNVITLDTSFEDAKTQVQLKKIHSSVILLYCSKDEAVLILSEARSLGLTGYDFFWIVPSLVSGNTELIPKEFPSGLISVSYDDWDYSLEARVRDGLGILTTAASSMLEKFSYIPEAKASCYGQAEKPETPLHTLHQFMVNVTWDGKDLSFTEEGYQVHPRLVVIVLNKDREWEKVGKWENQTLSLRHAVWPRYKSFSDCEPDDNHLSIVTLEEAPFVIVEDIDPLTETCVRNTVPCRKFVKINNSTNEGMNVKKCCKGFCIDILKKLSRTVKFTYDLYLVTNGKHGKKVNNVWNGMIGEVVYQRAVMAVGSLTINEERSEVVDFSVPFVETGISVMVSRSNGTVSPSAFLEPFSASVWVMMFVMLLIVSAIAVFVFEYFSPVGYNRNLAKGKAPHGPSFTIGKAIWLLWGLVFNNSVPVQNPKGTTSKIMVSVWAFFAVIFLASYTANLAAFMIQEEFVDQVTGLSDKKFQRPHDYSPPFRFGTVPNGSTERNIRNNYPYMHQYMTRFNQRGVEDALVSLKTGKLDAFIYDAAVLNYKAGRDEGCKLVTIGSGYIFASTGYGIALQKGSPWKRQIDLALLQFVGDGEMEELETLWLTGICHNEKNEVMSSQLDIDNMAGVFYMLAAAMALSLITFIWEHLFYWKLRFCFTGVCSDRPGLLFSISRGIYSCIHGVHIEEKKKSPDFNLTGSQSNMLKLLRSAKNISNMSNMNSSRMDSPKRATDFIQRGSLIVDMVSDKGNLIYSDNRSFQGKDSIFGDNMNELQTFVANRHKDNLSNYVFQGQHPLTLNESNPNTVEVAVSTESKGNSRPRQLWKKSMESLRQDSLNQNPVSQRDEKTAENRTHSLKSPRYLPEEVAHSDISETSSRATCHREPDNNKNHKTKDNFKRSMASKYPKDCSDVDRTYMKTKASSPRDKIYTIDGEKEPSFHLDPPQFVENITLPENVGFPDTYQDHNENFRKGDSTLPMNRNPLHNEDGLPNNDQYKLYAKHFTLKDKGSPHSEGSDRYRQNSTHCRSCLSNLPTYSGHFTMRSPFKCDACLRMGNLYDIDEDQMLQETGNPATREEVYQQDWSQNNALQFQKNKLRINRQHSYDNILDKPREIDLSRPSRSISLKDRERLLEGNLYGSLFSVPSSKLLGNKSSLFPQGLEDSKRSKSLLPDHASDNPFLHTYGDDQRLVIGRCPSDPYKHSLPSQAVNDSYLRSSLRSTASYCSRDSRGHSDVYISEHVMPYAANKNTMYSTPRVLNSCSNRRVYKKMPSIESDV

SMILES	IC50 (NMDA receptors; [1])	also measured
O=C(c1nc2cc3[nH]c(=O)oc3cc2[nH]1)N1CCC(Cc2ccccc2)CC1 [Compound 4570001972, 6-(4-Benzylpiperidin-1-carbonyl)-3,5-dihydro-imidazo[4′,5′;4,5]benzo[1,2-d]oxazole-2-one]	193 nM	
O=C(c1nc2c(ccc3oc(=O)[nH]c32)[nH]1)N1CCC(Cc2ccccc2)CC1 [Compound 4570001971, 7-(4-Benzylpiperidin-1-carbonyl)-1,6-dihydro-3-oxa-1,6,8-triaza-as-indacen-2-one]	328 nM	
O=C(c1cc2cc3[nH]c(=O)[nH]c3cc2[nH]1)N1CCC(Cc2ccccc2)CC1 [Compound 4570002045, 6-(4-Benzylpiperidin-1-carbonyl)-3,5-dihydro-1H-imidazo[4,5-f]indole-2-one]	440 nM	
O=C(c1cc2cc3[nH]c(=O)oc3cc2[nH]1)N1CCC(Cc2ccc(F)cc2)CC1 [Compound 4570001484, 6-[4-(4-Fluorobenzyl)piperidin-1-carbonyl]-1,5-dihydro-oxazolo[4,5-f]indole-2-one]	41 nM	
O=C(c1cc2c(ccc3[nH]cnc32)[nH]1)N1CCC(Cc2ccc(F)cc2)CC1 [Compound 4570001688, [4-(4-Fluorobenzyl)piperidin-1-yl]-(3,6-dihydro-imidazo[4,5-e]indol-7-yl)methanone]	88 nM	
O=C(c1cc2c(ccc3cn[nH]c32)[nH]1)N1CCC(Cc2ccccc2)CC1 [Compound 4570001662, (4-Benzylpiperidin-1-yl)-(1,6-dihydro-pirrolo[2,3-g]indazol-7-yl)-methanone]	58 nM	
C[C@@H]([C@@H](O)c1ccc(O)cc1)N1CCC(O)(c2ccccc2)CC1 [CP 101,606, (1S,2S)-1-(4-hydroxyphenyl)-2-(4-hydroxy-4-phenylpiperidine-1-yl)-1-propanol, reference compound]		inhibition at 15 µM (NR1a/NR2A receptors): -8.8%
Cc1ccc(OC2CCN(C(=O)c3cc4c(ccc5[nH]ncc54)[nH]3)CC2)cc1 [Compound 4570002260, (3,6-Dihydro-pirrolo[3,2-e]indazol-7-yl)-(4-p-tolyloxypiperidin-1-yl)methanone]	42 nM	inhibition at 15 µM (NR1a/NR2A receptors): 3.3%; IC50 (NR1a/NR2B receptors): 30 nM; selectivity toward NR2B subunit containing NMDA receptors (in words) (NR1a/NR2B receptors; according to the results in Table 2): highly selective; Selectivity (selectivity ratio NR2B/NR2A) (NR1a/NR2B receptors; ratio of test concentration on NR1/NR2A transfected cells and IC50 value on NR1/NR2B expressing cells): >500
O=C(CCN1CCC(Cc2ccc(F)cc2)CC1)c1ccc2[nH]c(=O)oc2c1 [EMD 95885, reference compound]	35 nM	
O=C(c1cc2c(ccc3cn[nH]c32)[nH]1)N1CCC(Cc2ccc(F)cc2)CC1 [Compound 4570001661, [4-(4-Fluorobenzyl)piperidin-1-yl]-(1,6-dihydro-pirrolo[2,3-g]indazol-7-yl)-methanone]	150 nM	
C[C@@H](CN1CCC(Cc2ccccc2)CC1)[C@@H](O)c1ccc(O)cc1 [Ro 25.6981, R-(R*,S*)-1-(4-hydroxyphenyl)-2-methyl-3-[4-(phenylmethyl)piperidin-1-yl]-1-propanol, reference compound]		IC50 (NMDA receptors): 159 nM
Cc1ccc(CC2CCN(C(=O)c3nc4ccc(O)cc4[nH]3)CC2)cc1 [Compound 4570001378, (6-Hydroxy-1H-benzoimidazol-2-yl)-[4-(4-methyl-benzyl)-piperidine-1-yl]-methanone]	9 nM	
Oc1ccc(OCCN2CCC(Cc3ccc(F)cc3)CC2)cc1 [Co-111103, 1-[2-(4-hydroxyphenoxy)ethyl]-4-(4-fluorobenzyl)piperidine, reference compound]	60 nM	
O=C(c1cc2cc3[nH]c(=O)oc3cc2[nH]1)N1CCC(OCc2ccccc2)CC1 [Compound 4570001462, 6-(4-Benzyloxypiperidin-1-carbonyl)-1,5-dihydro-oxazolo[4,5-f]indole-2-one]	79 nM	
O=C(c1cc2c(ccc3[nH]ncc32)[nH]1)N1CCC(Cc2ccccc2)CC1 [Compound 4570001689, (4-Benzylpiperidin-1-yl)-(3,6-dihydro-pirrolo[3,2-e]indazol-7-yl)methanone]	20 nM	
O=C(c1cc2ccc3[nH]ccc3c2[nH]1)N1CCC(Cc2ccccc2)CC1 [Compound 4514305, 1-(4-Benzylpiperidin-1-yl)-1-(1,6-dihydro-1,6-diaza-as-indacene-2-yl)methanone]	392 nM	
O=C(c1cc2cc3[nH]c(=O)oc3cc2[nH]1)N1CCC(Cc2ccccc2)CC1 [Compound 4570001461, 6-(4-Benzylpiperidin-1-carbonyl)-1,5-dihydro-oxazolo[4,5-f]indole-2-one]		inhibition at 15 µM (NR1a/NR2A receptors): 14.9%; IC50 (NR1a/NR2B receptors): 15 nM
O=C(c1cc2ccc(O)cc2[nH]1)N1CCC(Cc2ccc(F)cc2)CC1 [Compound 4513848, 1-[4-(4-Fluorobenzyl)piperidine-1-yl]-1-(6-hydroxy-1H-indole-2-yl)methanone]	90 nM	
O=C(c1cc2c(ccc3[nH]cnc32)[nH]1)N1CCC(Cc2ccccc2)CC1 [Compound 4570001779, (4-Benzylpiperidin-1-yl)-(3,6-dihydro-imidazo[4,5-e]indol-7-yl)methanone]	50 nM	
Cc1ccc(CC2CCN(C(=O)c3cc4c(ccc5[nH]ncc54)[nH]3)CC2)cc1 [Compound 4570002340, (3,6-Dihydro-pirrolo[3,2-e]indazol-7-yl)-[4-(4-methylbenzyl)piperidin-1-yl]methanone]	127 nM	
O=C(c1cc2c(ccc3[nH]ncc32)[nH]1)N1CCC(Cc2ccc(F)cc2)CC1 [Compound 4570001690, [4-(4-Fluorobenzyl)piperidin-1-yl]-(3,6-dihydro-pirrolo[3,2-e]indazol-7-yl)methanone]	22 nM	
